# Values joined by “and” are separate entries in the source; they are usually repeats but may differ in a detail not shown here. Equal values may be shown once.
# Assays:
# hrCYP2C19 = hrCYP2C19 (Homo sapiens, UniProt P33261); assay: CYP reaction phenotyping with hrCYP2C19 (% remaining); type: in vitro ADME; settings: hrCYP2C19 20 pmol CYP/mL, 5 μM TA, PB and TUDCA co-incubated
# P-gp and BCRP = P-gp and BCRP substrate assessment in C2BBe1 monolayers
# Protocol: The P-gp and BCRP substrate assessment was conducted in C2BBe1 cell monolayers. […] LY was co-dosed with each dosing solution at a nominal concentration of 200 μM.
# The cell culture medium was aspirated, and the cell monolayers were rinsed once with HBSSg_7.4. […] For receiver samples, aliquots (300 μL) were taken at pre-selected time points. […] For donor samples, aliquots (50 μL) were taken at pre-selected time points without replacement.
# hrCYP2C9 = hrCYP2C9 (Homo sapiens, UniProt P11712); assay: CYP reaction phenotyping with hrCYP2C9 (% remaining); type: in vitro ADME; settings: hrCYP2C9 20 pmol CYP/mL, 5 μM TA, PB and TUDCA co-incubated
# Chain of hrCYP2C9 (P11712 whole entry): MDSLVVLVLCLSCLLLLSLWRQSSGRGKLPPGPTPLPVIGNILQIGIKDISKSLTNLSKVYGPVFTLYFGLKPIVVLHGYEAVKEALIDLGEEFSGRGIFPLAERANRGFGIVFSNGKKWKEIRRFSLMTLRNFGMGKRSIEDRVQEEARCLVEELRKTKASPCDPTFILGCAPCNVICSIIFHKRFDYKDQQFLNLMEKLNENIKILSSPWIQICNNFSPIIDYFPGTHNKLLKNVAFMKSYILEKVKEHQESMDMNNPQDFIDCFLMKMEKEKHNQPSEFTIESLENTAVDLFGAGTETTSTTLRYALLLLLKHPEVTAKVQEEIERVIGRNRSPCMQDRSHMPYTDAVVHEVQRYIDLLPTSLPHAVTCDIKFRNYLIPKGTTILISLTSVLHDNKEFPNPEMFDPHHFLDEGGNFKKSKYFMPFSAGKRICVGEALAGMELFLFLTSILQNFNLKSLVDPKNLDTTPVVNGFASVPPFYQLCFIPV
# [1] = Relevant plasma concentrations for in vitro transporter assessment; type: in vivo
# [2] = biological target: CYPs in human liver microsomes (HLM) (Homo sapiens, UniProt P10635); assay: CYP reaction phenotyping in HLM with chemical inhibitors (% remaining); settings: +NADPH +quinidine (CYP2D6)
# Chain of CYPs in human liver microsomes (HLM) (Homo sapiens, UniProt P10635) (P10635 whole entry): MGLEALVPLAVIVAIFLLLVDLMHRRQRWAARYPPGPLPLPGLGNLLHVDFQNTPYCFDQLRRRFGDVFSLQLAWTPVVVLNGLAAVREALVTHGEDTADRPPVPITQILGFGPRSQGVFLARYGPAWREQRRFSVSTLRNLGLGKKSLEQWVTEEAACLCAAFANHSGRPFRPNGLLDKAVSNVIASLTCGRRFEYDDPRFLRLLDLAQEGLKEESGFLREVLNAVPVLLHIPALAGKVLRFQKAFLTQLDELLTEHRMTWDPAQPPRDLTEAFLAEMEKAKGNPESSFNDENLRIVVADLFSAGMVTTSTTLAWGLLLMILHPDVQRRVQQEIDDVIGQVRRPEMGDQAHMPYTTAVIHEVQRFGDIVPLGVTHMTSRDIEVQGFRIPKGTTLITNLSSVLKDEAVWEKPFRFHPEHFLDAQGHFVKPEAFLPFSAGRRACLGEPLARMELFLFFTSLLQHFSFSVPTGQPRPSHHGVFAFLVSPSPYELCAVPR
# [3] = biological target: T1, CYPs in human liver microsomes (HLM) (Homo sapiens, UniProt P05177); assay: as above; settings: +NADPH +furafylline (CYP1A2), pre-incubated
# T1 sequence (P05177 1-516): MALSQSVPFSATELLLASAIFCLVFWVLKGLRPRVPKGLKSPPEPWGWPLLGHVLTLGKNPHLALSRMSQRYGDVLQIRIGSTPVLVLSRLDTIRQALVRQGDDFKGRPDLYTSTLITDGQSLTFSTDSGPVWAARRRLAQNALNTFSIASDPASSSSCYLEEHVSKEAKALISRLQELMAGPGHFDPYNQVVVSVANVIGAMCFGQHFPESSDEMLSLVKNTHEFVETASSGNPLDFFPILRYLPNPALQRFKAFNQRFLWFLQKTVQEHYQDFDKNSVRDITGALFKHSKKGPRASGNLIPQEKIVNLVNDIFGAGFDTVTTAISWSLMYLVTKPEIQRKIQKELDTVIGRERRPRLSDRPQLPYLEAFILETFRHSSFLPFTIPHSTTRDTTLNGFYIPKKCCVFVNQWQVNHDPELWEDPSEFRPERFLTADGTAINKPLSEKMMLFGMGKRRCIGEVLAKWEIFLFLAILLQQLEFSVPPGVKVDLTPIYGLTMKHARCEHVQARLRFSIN
# [4] = tested on: CYPs in human liver microsomes (HLM); assay: as above
# [5] = biological target: CYPs in human liver microsomes (HLM) (Homo sapiens, UniProt P11712); assay: as above; settings: +NADPH +sulfaphenazole (CYP2C9)
# Chain of CYPs in human liver microsomes (HLM) (Homo sapiens, UniProt P11712) (P11712 whole entry): as the sequence (P11712 whole entry) above
# [6] = biological target: CYPs in human liver microsomes (HLM) (Homo sapiens, UniProt P33261); assay: as above; settings: +NADPH +N3B (CYP2C19)
# Chain of CYPs in human liver microsomes (HLM) (Homo sapiens, UniProt P33261) (P33261 whole entry): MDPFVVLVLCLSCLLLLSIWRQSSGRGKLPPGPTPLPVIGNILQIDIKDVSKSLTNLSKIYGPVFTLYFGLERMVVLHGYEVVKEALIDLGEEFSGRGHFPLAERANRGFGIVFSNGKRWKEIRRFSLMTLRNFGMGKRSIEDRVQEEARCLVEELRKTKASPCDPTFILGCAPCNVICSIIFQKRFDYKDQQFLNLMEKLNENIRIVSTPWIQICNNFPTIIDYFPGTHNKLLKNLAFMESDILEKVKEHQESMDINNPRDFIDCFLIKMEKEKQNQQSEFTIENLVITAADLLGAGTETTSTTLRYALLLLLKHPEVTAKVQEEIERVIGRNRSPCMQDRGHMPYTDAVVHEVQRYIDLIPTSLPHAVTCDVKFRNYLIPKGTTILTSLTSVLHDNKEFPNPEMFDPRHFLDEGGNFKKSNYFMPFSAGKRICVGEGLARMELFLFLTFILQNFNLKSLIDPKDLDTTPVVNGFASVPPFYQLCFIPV
# [7] = 1.62 μM TUDCA (Solution 3), C2BBe1 cells, average
# [8] = 1.62 μM TUDCA (Solution 3), C2BBe1 cells, single replicates
# [9] = 16.2 μM TUDCA (Solution 2), C2BBe1 cells, average
# [10] = 16.2 μM TUDCA (Solution 2), C2BBe1 cells, single replicates
# [11] = […] TUDCA (Solution 1), C2BBe1 cells, average
# [12] = […] TUDCA (Solution 4), C2BBe1 cells, average
# Chain of hrCYP2C19 (P33261 whole entry): as above
substance,measurement,setting,value
tauroursodeoxycholic acid [TUDCA],% Remaining of TA,hrCYP2C19; 0 min,100%
same,% Remaining of TA,hrCYP2C19; 5 min,96.1%
same,% Remaining of TA,hrCYP2C19; 10 min,98.7%
same,% Remaining of TA,hrCYP2C19; 20 min,94.8%
same,% Remaining of TA,hrCYP2C19; 30 min,95.1%
same,Papp AP-to-BL,P-gp and BCRP; [7],8.32 10^−6 cm/s
same,Papp BL-to-AP,P-gp and BCRP; [7],1.91 10^−6 cm/s
same,Papp AP-to-BL,P-gp and BCRP; [8],9.59 10^−6 cm/s and 7.25 10^−6 cm/s and 8.12 10^−6 cm/s
same,Papp BL-to-AP,P-gp and BCRP; [8],1.75 10^−6 cm/s and 1.84 10^−6 cm/s
same,Papp AP-to-BL,P-gp and BCRP; [9],2.00 10^−6 cm/s
same,Papp BL-to-AP,P-gp and BCRP; [9],0.610 10^−6 cm/s
same,Papp AP-to-BL,P-gp and BCRP; [10],1.19 10^−6 cm/s and 2.71 10^−6 cm/s and 2.08 10^−6 cm/s
same,Papp BL-to-AP,P-gp and BCRP; [10],0.553 10^−6 cm/s and 0.714 10^−6 cm/s and 0.561 10^−6 cm/s
same,Papp BL-to-AP,P-gp and BCRP; Caco-2,2.15 10^−6 cm/s
same,Papp AP-to-BL,P-gp and BCRP; [11],5.92 10^−6 cm/s
same,Papp BL-to-AP,P-gp and BCRP; [11],3.00 10^−6 cm/s
same,Papp AP-to-BL,P-gp and BCRP; [12],7.11 10^−6 cm/s
same,Papp BL-to-AP,P-gp and BCRP; [12],2.14 10^−6 cm/s
same,% Remaining of TA,hrCYP2C9; 0 min,100%
same,% Remaining of TA,hrCYP2C9; 5 min,96.0%
same,% Remaining of TA,hrCYP2C9; 10 min,98.8%
same,% Remaining of TA,hrCYP2C9; 20 min,98.5%
same,% Remaining of TA,hrCYP2C9; 30 min,97.8%
same,% Remaining of TA,hrCYP2C9; 60 min,90.3%
same,Plasma Cmax (total [I]1),"[1]; component of AMX0035, highest oral dose TUDCA 1000 mg, PB 3000 mg",108 µM
same,"Unbound [I]m, max","[1]; projected unbound Iin, max",3.48 µM
same,Unbound Cmax (Unbound [I]1),"[1]; projected, from total Cmax and plasma protein binding",1.62 µM
same,% remaining of TA in HLM,[2]; 10 min,110%
same,% remaining of TA in HLM,[2]; 20 min,99.7%
same,% remaining of TA in HLM,[2]; 60 min,87.2%
same,% remaining of TA in HLM,[3]; 5 min,123%
same,% remaining of TA in HLM,[3]; 10 min,123%
same,% remaining of TA in HLM,[3]; 20 min,121%
same,% remaining of TA in HLM,[3]; 30 min,120%
same,% remaining of TA in HLM,[3]; 60 min,128%
same,Metabolism by the major CYPs in HLM,[4],neither PB nor TUDCA is metabolized
same,% remaining of TA in HLM,"[4]; +NADPH +ketoconazole (CYP3A), 10 min",110%
same,% remaining of TA in HLM,"[4]; +NADPH +ketoconazole (CYP3A), 20 min",108%
same,% remaining of TA in HLM,"[4]; +NADPH +ketoconazole (CYP3A), 30 min",94.1%
same,% remaining of TA in HLM,"[4]; Maximum Metabolism-1: +NADPH −inhibitor, pre-incubated, 5 min",112%
same,% remaining of TA in HLM,"[4]; Maximum Metabolism-1: +NADPH −inhibitor, pre-incubated, 10 min",126%
same,% remaining of TA in HLM,"[4]; Maximum Metabolism-1: +NADPH −inhibitor, pre-incubated, 20 min",123%
same,% remaining of TA in HLM,"[4]; Maximum Metabolism-1: +NADPH −inhibitor, pre-incubated, 30 min",121%
same,% remaining of TA in HLM,"[4]; Maximum Metabolism-1: +NADPH −inhibitor, pre-incubated, 60 min",121%
same,% remaining of TA in HLM,"[4]; Maximum Metabolism-2: +NADPH −inhibitor, 5 min",103%
same,% remaining of TA in HLM,"[4]; Maximum Metabolism-2: +NADPH −inhibitor, 10 min",103%
same,% remaining of TA in HLM,"[4]; Maximum Metabolism-2: +NADPH −inhibitor, 20 min",103%
same,% remaining of TA in HLM,"[4]; Maximum Metabolism-2: +NADPH −inhibitor, 30 min",102%
same,% remaining of TA in HLM,"[4]; Maximum Metabolism-2: +NADPH −inhibitor, 60 min",96.9%
same,% remaining of TA in HLM,"[4]; Negative Control-1: −NADPH −inhibitor, pre-incubated, 5 min",117%
same,% remaining of TA in HLM,"[4]; Negative Control-1: −NADPH −inhibitor, pre-incubated, 10 min",129%
same,% remaining of TA in HLM,"[4]; Negative Control-1: −NADPH −inhibitor, pre-incubated, 20 min",119%
same,% remaining of TA in HLM,"[4]; Negative Control-1: −NADPH −inhibitor, pre-incubated, 30 min",130%
same,% remaining of TA in HLM,"[4]; Negative Control-1: −NADPH −inhibitor, pre-incubated, 60 min",132%
same,% remaining of TA in HLM,"[4]; Negative Control-2: −NADPH −inhibitor, 5 min",104%
same,% remaining of TA in HLM,"[4]; Negative Control-2: −NADPH −inhibitor, 10 min",104%
same,% remaining of TA in HLM,"[4]; Negative Control-2: −NADPH −inhibitor, 20 min",105%
same,% remaining of TA in HLM,"[4]; Negative Control-2: −NADPH −inhibitor, 30 min",106%
same,% remaining of TA in HLM,"[4]; Negative Control-2: −NADPH −inhibitor, 60 min",106%
same,% remaining of TA in HLM,[5]; 10 min,96.9%
same,% remaining of TA in HLM,[5]; 20 min,92.8%
same,% remaining of TA in HLM,[5]; 30 min,95.0%
same,% remaining of TA in HLM,[5]; 60 min,95.3%
same,% remaining of TA in HLM,[6]; 5 min,106%
same,% remaining of TA in HLM,[6]; 10 min,93.0%
same,% remaining of TA in HLM,[6]; 20 min,93.1%
same,% remaining of TA in HLM,[6]; 30 min,92.1%
same,% remaining of TA in HLM,[6]; 60 min,94.5%

# From patent publication US20240139211A1, “METHODS AND COMPOSITIONS FOR TREATING AMYOTROPHIC LATERAL SCLEROSIS” (Amylyx Pharmaceuticals, Inc., priority 2022, published 2024)
